In the test the target is T1, human RXFP1 (Homo sapiens, UniProt Q9HBX9).
T1 construct: expressed in transfected cells
T1 sequence (Q9HBX9 1-757): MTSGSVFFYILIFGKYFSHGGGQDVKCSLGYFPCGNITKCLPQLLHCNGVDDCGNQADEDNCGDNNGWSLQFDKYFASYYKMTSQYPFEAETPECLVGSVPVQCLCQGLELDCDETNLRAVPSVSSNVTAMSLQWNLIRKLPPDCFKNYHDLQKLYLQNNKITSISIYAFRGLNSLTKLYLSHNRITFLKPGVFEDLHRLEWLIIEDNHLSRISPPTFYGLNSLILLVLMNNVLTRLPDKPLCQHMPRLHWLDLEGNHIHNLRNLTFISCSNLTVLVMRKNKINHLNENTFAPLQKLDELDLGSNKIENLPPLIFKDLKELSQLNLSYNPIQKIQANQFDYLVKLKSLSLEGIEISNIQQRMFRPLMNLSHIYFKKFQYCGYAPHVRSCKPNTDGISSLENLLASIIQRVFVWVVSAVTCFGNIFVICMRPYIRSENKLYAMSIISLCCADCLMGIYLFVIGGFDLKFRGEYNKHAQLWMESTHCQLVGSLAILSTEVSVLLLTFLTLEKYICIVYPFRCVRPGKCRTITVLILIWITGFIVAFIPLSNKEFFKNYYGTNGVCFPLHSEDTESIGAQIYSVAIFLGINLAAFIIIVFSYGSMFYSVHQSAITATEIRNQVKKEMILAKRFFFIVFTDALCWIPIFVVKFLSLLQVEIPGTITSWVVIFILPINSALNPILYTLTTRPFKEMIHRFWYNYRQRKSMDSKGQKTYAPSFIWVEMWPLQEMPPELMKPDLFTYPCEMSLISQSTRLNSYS
The test is described as follows: human RXFP1 (hRXFP1) HEK293 cAMP assay (HTRF). The format is cell-based. The following applies: HEK293 cells stably expressing human RXFP1, 30 min at room temperature. The method in brief:
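HEK293 cells stably expressing human RXFP1 (1500 cells/well) in HBSS/20 mM HEPES/0.05% BSA/0.5 mM IBMX, treated with compound (0.010 nM–50 µM final, 2% DMSO) for 30 min at room temperature. Intracellular cAMP read by HTRF; potency from 4-parameter logistic fit of cAMP versus concentration.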
A general note: Changes in cAMP serve as a functional read-out for many G protein-coupled receptors.

A word on the EC50: it is the midpoint of the concentration-response curve. Lower therefore signals an effect from little substance.

Turning to `COc1ncc(C2=NOC3CC(O)CC23)cc1C(=O)N[C@H]1[C@@H](C(=O)Nc2ccc(F)c(C(F)(F)F)c2)[C@H]2CC[C@@H]1/C2=C\CCC(F)(F)F` (stereo partly drawn) [Example 121, N-((1R,2R,3S,4R,Z)-3-((4-fluoro-3-(trifluoromethyl)phenyl)carbamoyl)-7-(4,4,4-trifluorobutylidene)bicyclo[2.2.1]heptan-2-yl)-5-(5-hydroxy-3a,5,6,6a-tetrahydro-4H-cyclopenta[d]isoxazol-3-yl)-2-methoxynicotinamide], the EC50 came out at 1.3 nM.

As for `COc1ncc(C2=NOC3CC(C(O)C(F)(F)F)CC23)cc1C(=O)N[C@H]1[C@@H](C(=O)Nc2ccc(F)c(C(F)(F)F)c2)[C@H]2CC[C@@H]1/C2=C\C1CCC1` (stereo partly drawn) [Example 122, N-((1R,2R,3S,4R,Z)-7-(cyclobutyl-methylene)-3-((4-fluoro-3-(trifluoromethyl)phenyl)carbamoyl)bicyclo[2.2.1]heptan-2-yl)-2-methoxy-5-(5-(2,2,2-trifluoro-1-hydroxyethyl)-3a,5,6,6a-tetrahydro-4H-cyclopenta[d]isoxazol-3-yl)nicotinamide], the response was half-maximal at 2.6 nM (EC50).

Molecule `COc1ncc(C2=NOC3CC(CO)CC23)cc1C(=O)N[C@H]1[C@@H](C(=O)Nc2ccc(F)c(C(F)(F)F)c2)[C@H]2CC[C@@H]1/C2=C\C1CCCC1` (stereo partly drawn) [Example 123, N-((1R,2R,3S,4R,Z)-7-(cyclopentyl-methylene)-3-((4-fluoro-3-(trifluoromethyl)phenyl)carbamoyl)bicyclo[2.2.1]heptan-2-yl)-5-(5-(hydroxymethyl)-3a,5,6,6a-tetrahydro-4H-cyclopenta[d]isoxazol-3-yl)-2-methoxynicotinamide] came in with an EC50 of 3.1 nM.

With `COc1ncc(C2=NOC3CC(C(C)O)CC23)cc1C(=O)N[C@H]1[C@@H](C(=O)Nc2ccc(F)c(C(F)(F)F)c2)[C@H]2CC[C@@H]1/C2=C\CCC(F)(F)F` (stereo partly drawn) [Example 124, N-((1R,2R,3S,4R,Z)-3-((4-fluoro-3-(trifluoromethyl)phenyl)carbamoyl)-7-(4,4,4-trifluorobutylidene)bicyclo[2.2.1]heptan-2-yl)-5-(5-(1-hydroxyethyl)-3a,5,6,6a-tetrahydro-4H-cyclopenta[d]isoxazol-3-yl)-2-methoxynicotinamide], the midpoint of the response, the EC50, lay at 3.6 nM.

`COc1ncc(C2=NOC3OCCCC23)cc1C(=O)N[C@H]1[C@@H](C(=O)Nc2ccc(F)c(C(F)(F)F)c2)[C@H]2CC[C@@H]1/C2=C\C1CCCC1` (stereo partly drawn) [Example 125, N-((1R,2R, 3S,4R,Z)-7-(cyclopentyl-methylene)-3-((4-fluoro-3-(trifluoromethyl)phenyl)carbamoyl)bicyclo[2.2.1]heptan-2-yl)-2-methoxy-5-(3a,5,6,7a-tetrahydro-4H-pyrano[3,2-d]isoxazol-3-yl)nicotinamide]: the EC50 amounted to 3.6 nM.

Regarding `COc1ncc(C2=NOC3CC(O)CC23)cc1C(=O)N[C@H]1[C@@H](C(=O)Nc2ccc(F)c(C(F)(F)F)c2)[C@H]2CC[C@@H]1/C2=C\C1CCCC1` (stereo partly drawn) [Example 126, N-((1R,2R,3S,4R,Z)-7-(cyclopentylmethylene)-3-((4-fluoro-3-(trifluoromethyl)phenyl)carbamoyl)bicyclo[2.2.1]heptan-2-yl)-5-(5-hydroxy-3a,5,6,6a-tetrahydro-4H-cyclopenta[d]isoxazol-3-yl)-2-methoxynicotinamide], the EC50 came to 4.2 nM.

For `COc1ncc(C2=NOC3CC(C(O)C(F)(F)F)CC23)cc1C(=O)N[C@H]1[C@@H](C(=O)Nc2ccc(F)c(C(F)(F)F)c2)[C@H]2CC[C@@H]1/C2=C\C(C)C` (stereo partly drawn) [Example 127, N-((1R,2R,3S,4R,Z)-3-((4-fluoro-3-(trifluoromethyl)phenyl)carbamoyl)-7-(2-methylpropylidene)bicyclo[2.2.1]heptan-2-yl)-2-methoxy-5-(5-(2,2,2-trifluoro-1-hydroxyethyl)-3a,5,6,6a-tetrahydro-4H-cyclopenta [d]isoxazol-3-yl)nicotinamide], the response was half-maximal at 4.3 nM (EC50).

As for `COc1ncc(C2=NOC3CC(C(C)O)CC23)cc1C(=O)N[C@H]1[C@@H](C(=O)Nc2ccc(F)c(C(F)(F)F)c2)[C@H]2CC[C@@H]1/C2=C\C1CCCC1` (stereo partly drawn) [Example 128, N-((1R,2R,3S,4R,Z)-7-(cyclopentylmethylene)-3-((4-fluoro-3-(trifluoromethyl)phenyl)carbamoyl)bicyclo[2.2.1]heptan-2-yl)-5-(5-(1-hydroxyethyl)-3a,5,6,6a-tetrahydro-4H-cyclopenta[d]isoxazol-3-yl)-2-methoxynicotinamide], the midpoint of the response, the EC50, lay at 4.9 nM.

As for `COc1ncc(C2=NOC3CC(C(O)C(F)(F)F)CC23)cc1C(=O)N[C@H]1[C@@H](C(=O)Nc2ccc(F)c(C(F)(F)F)c2)[C@H]2CC[C@@H]1/C2=C\CC(O)C(F)(F)F` (stereo partly drawn) [Example 129, N-((1R,2R,3S,4R,Z)-3-((4-fluoro-3-(trifluoromethyl)phenyl)carbamoyl)-7-(4,4,4-trifluoro-3-hydroxybutylidene)bicyclo[2.2.1]heptan-2-yl)-2-methoxy-5-(5-(2,2,2-trifluoro-1-hydroxyethyl)-3a,5,6,6a-tetrahydro-4H-cyclopenta[d]isoxazol-3-yl)nicotinamide], the EC50 was 5 nM.

In the case of `COc1ncc(C2=NOC3CC(C(O)C(F)(F)F)CC23)cc1C(=O)N[C@H]1[C@@H](C(=O)Nc2ccc(F)c(C(F)(F)F)c2)[C@H]2CC[C@@H]1/C2=C\C1CC1` (stereo partly drawn) [Example 130, N-((1R,2R,3S,4R,Z)-7-(cyclopropylmethylene)-3-((4-fluoro-3-(trifluoromethyl)phenyl)carbamoyl)bicyclo[2.2.1]heptan-2-yl)-2-methoxy-5-(5-(2,2,2-trifluoro-1-hydroxyethyl)-3a,5,6,6a-tetrahydro-4H-cyclopenta[d]isoxazol-3-yl)nicotinamide], the EC50 amounted to 1.2 nM.

Take `COc1ncc(C2=NOC3CC(C(O)C(F)(F)F)CC23)cc1C(=O)N[C@H]1[C@@H](C(=O)Nc2ccc(F)c(C(F)(F)F)c2)[C@H]2CC[C@@H]1/C2=C\C1CC1` (stereo partly drawn) [Example 131, N-((1R,2R,3S,4R,Z)-7-(cyclopropyl-methylene)-3-((4-fluoro-3-(trifluoromethyl)phenyl)carbamoyl)bicyclo[2.2.1]heptan-2-yl)-2-methoxy-5-(5-(2,2,2-trifluoro-1-hydroxyethyl)-3a,5,6,6a-tetrahydro-4H-cyclopenta[d]isoxazol-3-yl)nicotinamide]: the EC50 turned out to be 1.6 nM.

The molecule `COc1ncc(C2=NO[C@@H]3C[C@H](CO)CN23)cc1C(=O)N[C@@H]1C2CCC(/C2=C/C2CC2)[C@@H]1C(=O)Nc1ccc(F)c(C(F)(F)F)c1` (stereo partly drawn) [Example 132, N-((1R,2R,3S,4R,Z)-7-(cyclopropyl-methylene)-3-((4-fluoro-3-(trifluoromethyl)phenyl)carbamoyl)bicyclo[2.2.1]heptan-2-yl)-5-((6S,7aR)-6-(hydroxymethyl)-5,6,7,7a-tetrahydropyrrolo [1,2-d][1,2,4]oxadiazo 1-3-yl)-2-methoxynicotinamide] gave an EC50 of 1.8 nM.

As to `COc1ncc(C2=NO[C@@H]3C[C@H](CO)CN23)cc1C(=O)N[C@@H]1C2CCC(/C2=C/C2CCCC2)[C@@H]1C(=O)Nc1ccc(F)c(C(F)(F)F)c1` (stereo partly drawn) [Example 133, N-((1R,2R,3S,4R,Z)-7-(cyclopentyl-methylene)-3-((4-fluoro-3-(trifluoromethyl)phenyl)carbamoyl)bicyclo[2.2.1]heptan-2-yl)-5-((6S,7aR)-6-(hydroxymethyl)-5,6,7,7a-tetrahydropyrrolo [1,2-d][1,2,4]oxadiazo 1-3-yl)-2-methoxynicotinamide], the EC50 came out at 2.1 nM.
